According to patent US8198290B2, “Methoxatin derivatives” (Berry and Associates, Inc., priority 2009, dated 2012):
“And” between values parts separate entries of the source, which are not always exact repeats. Equal values may be shown once.

Molecular target: T1, soluble glucose dehydrogenase (GDH) (Acinetobacter calcoaceticus, UniProt P13650)
T1 sequence (P13650 25-478): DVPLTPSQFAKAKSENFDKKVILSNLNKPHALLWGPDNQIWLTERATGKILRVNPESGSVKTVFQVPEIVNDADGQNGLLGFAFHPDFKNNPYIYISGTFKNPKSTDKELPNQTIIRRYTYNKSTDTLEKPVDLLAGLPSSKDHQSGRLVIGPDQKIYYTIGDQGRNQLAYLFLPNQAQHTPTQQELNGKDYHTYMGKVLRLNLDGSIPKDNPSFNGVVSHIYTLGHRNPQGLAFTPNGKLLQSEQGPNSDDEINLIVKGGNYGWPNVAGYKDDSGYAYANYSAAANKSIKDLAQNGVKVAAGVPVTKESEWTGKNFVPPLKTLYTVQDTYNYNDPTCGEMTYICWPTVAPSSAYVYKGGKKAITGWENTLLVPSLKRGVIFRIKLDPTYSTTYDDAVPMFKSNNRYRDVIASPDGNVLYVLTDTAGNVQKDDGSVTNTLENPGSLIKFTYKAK
Test: GDH assay: coenzyme activity relative to native methoxatin
Assay type: biochemical
Design: concentration or dose not given beside the values
Settings: coenzyme activity expressed as a percentage of the methoxatin sample
Method: The coenzyme activity of several compounds relative to native methoxatin was determined with a published assay that utilizes soluble glucose dehydrogenase (GDH) from Acinetobactercalcoaceticus. (Misset-Smits et al., Methods in Enzymol., 280, 89-98 (1997)).

| SMILES | Relative Activity in GDH Assay |
| --- | --- |
| C=CCCCONC(=O)c1cc(C(=O)O)c2c(n1)C(=O)C(=O)c1cc(C(=O)O)[nH]c1-2 [Compound 5, 4,5-Dioxo-7-((pent-4-en-1-yloxy)carbamoyl)-4,5-dihydro-1H-pyrrolo[2,3-f]quinoline-2,9-dicarboxylic acid] | 40% and 45% |
| O=C(/C=C/c1cn([C@H]2C[C@H](O)[C@@H](CO)O2)c(=O)[nH]c1=O)NCCCCCCNC(=O)c1ccc(C(=O)NCCOCCOCCOCCONC(=O)c2cc(C(=O)O)c3c(n2)C(=O)C(=O)c2cc(C(=O)O)[nH]c2-3)c(P(=O)(c2ccccc2)c2ccccc2)c1 [Compound 15, 7-(((1-(2-(diphenylphosphoryl)-4-((6-((E)-3-(1-((2R,4S,5R)-4-hydroxy-5-(hydroxymethyl)tetrahydrofuran-2-yl)-2,4-dioxo-1,2,3,4-tetrahydropyrimidin-5-yl)acrylamido)hexyl)carbamoyl)phenyl)-1-oxo-5,8,11-trioxa-2-azatridecan-13-yl)oxy)carbamoyl)-4,5-dioxo-4,5-dihydro-1H-pyrrolo[2,3-f]quinoline-2,9-dicarboxylic acid] | 6% |
| [N-]=[N+]=NCCOCCOCCOCCONC(=O)c1cc(C(=O)O)c2c(n1)C(=O)C(=O)c1cc(C(=O)O)[nH]c1-2 [Compound 7, 7-(((11-Azido-3,6,9-trioxaundecyl)oxy)carbamoyl)-4,5-dioxo-4,5-dihydro-1H-pyrrolo[2,3-f]quinoline-2,9-dicarboxylic acid] | 45% and 40% |
| O=C(O)c1cc(C(=O)O)c2c(n1)C(=O)C(=O)c1cc(C(=O)O)[nH]c1-2 [Methoxatin] | 100% |
